Measurements reported in patent US8574563B2 (Bristol-Myers Squibb Company, priority 2006, dated 2013).
pEC50: −log10 of the molar value.

Test system: HCV 1b-377-neo replicon cells
Assay: HCV replicon assay, HCV 1b-377-neo replicon cells (1b FRET)
Type: cell-based, Hepatitis C virus genotype 1b
Conditions: HCV 1b-377-neo replicon cells; HCV 1b genotype; read-out: EC50 range against HCV 1b (Table 2, Range)
Method in brief: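 Compounds were tested in genotype 1b subgenomic replicon cells carrying a neomycin marker, alongside a matched replicon line with an NS5A Y2065H substitution that confers resistance to a reference NS5A inhibitor.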

Structure (SMILES) | pEC50
COC(=O)N[C@@H](C(=O)N1CCC[C@H]1c1ncc(-c2ccc(-c3ccc(-c4cnc([C@@H]5CCCN5C(=O)[C@@H]5CCCN5C)[nH]4)cc3)cc2)[nH]1)c1ccccc1 [Example 52, methyl ((1R)-2-((2S)-2-(5-(4′-(2-((2S)-1-(1-methyl-L-propyl)-2-pyrrolidinyl)-1H-imidazol-5-yl)-4-biphenylyl)-1H-imidazol-2-yl)-1-pyrrolidinyl)-2-oxo-1-phenylethyl)carbamate] | 9.00 to 12.00

Same assay, conditions: Hepatitis C virus, HCV 1b-377-neo replicon cells; HCV 1b genotype; read-out: EC50 range against HCV 1b (Table 2, Range)

Structure (SMILES) | pEC50
COC(=O)N[C@@H](C(=O)N1CCC[C@H]1c1ncc(-c2ccc(-c3ccc(-c4[nH]c([C@@H]5CCCN5C(=O)[C@H](NC(=O)OC)c5ccccc5)nc4C(F)(F)F)cc3)cc2)[nH]1)c1ccccc1 [Example J37, methyl ((1R)-2-((2S)-2-(5-(4′-(2-((2S)-1-((2R)-2-((methoxycarbonyl)amino)-2-phenylacetyl)-2-pyrrolidinyl)-1H-imidazol-5-yl)-4-biphenylyl)-4-(trifluoromethyl)-1H-imidazol-2-yl)-1-pyrrolidinyl)-2-oxo-1-phenylethyl)carbamate] | 9.00 to 12.00
COCC(=O)N1CCC[C@H]1c1ncc(-c2ccc(-c3ccc(-c4cnc([C@@H]5CCCN5C(=O)[C@H](NC(=O)OC)c5ccccc5)[nH]4)cc3)cc2)[nH]1 [Example 55, methyl ((1R)-2-((2S)-2-(5-(4′-(2-((2S)-1-(methoxyacetyl)-2-pyrrolidinyl)-1H-imidazol-5-yl)-4-biphenylyl)-1H-imidazol-2-yl)-1-pyrrolidinyl)-2-oxo-1-phenylethyl)carbamate] | 9.00 to 12.00
COC(=O)N[C@@H](C(=O)N1CCC[C@H]1c1ncc(-c2ccc(-c3ccc(-c4cnc([C@@H]5CCCN5C(=O)[C@H]5CCCO5)[nH]4)cc3)cc2)[nH]1)c1ccccc1Cl [Example 107-39, methyl ((1R)-1-(2-chlorophenyl)-2-oxo-2-((2S)-2-(5-(4′-(2-((2S)-1-((2R)-tetrahydro-2-furanylcarbonyl)-2-pyrrolidinyl)-1H-imidazol-5-yl)-4-biphenylyl)-1H-imidazol-2-yl)-1-pyrrolidinyl)ethyl) carbamate] | 9.00 to 12.00
Cc1cc(-c2cnc([C@@H]3CCCN3C(=O)[C@@H](c3ccccc3)N(C)C)[nH]2)ccc1-c1ccc(-c2cnc([C@@H]3CCCN3C(=O)[C@@H](c3ccccc3)N(C)C)[nH]2)cn1 [Example 136, (1R)-2-((2S)-2-(5-(6-(4-(2-((2S)-1-((2R)-2-(dimethylamino)-2-phenylacetyl)-2-pyrrolidinyl)-1H-imidazol-5-yl)-2-methylphenyl)-3-pyridinyl)-1H-imidazol-2-yl)-1-pyrrolidinyl)-N,N-dimethyl-2-oxo-1-phenylethanamine] | 9.00 to 12.00
COC(=O)NCC(=O)N1CCC[C@H]1c1ncc(-c2ccc(-c3ccc(-c4cnc([C@@H]5CCCN5C(=O)[C@@H](c5ccccc5)N5CCCC5)[nH]4)cc3)cc2)[nH]1 [Example 102, methyl (2-oxo-2-((2S)-2-(5-(4′-(2-((2S)-1-((2R)-2-phenyl-2-(1-pyrrolidinyl)acetyl)-2-pyrrolidinyl)-1H-imidazol-5-yl)-4-biphenylyl)-1H-imidazol-2-yl)-1-pyrrolidinyl)ethyl)carbamate] | 9.00 to 12.00
COC(=O)N[C@@H](C(=O)N(C)[C@@H](C)c1ncc(-c2ccc(-c3ncc(-c4cnc([C@@H]5CCCN5C(=O)[C@H](NC(=O)OC)c5ccccc5)[nH]4)cn3)cc2)[nH]1)c1ccccc1 [Example 152j-21, methyl ((1R)-2-((2S)-2-(5-(2-(4-(2-((1S)-1-(((2R)-2-((methoxycarbonyl)amino)-2-phenylacetyl)(methyl)amino)ethyl)-1H-imidazol-5-yl)phenyl)-5-pyrimidinyl)-1H-imidazol-2-yl)-1-pyrrolidinyl)-2-oxo-1-phenylethyl)carbamate] | 9.00 to 12.00
COC(=O)N[C@@H](C)C(=O)N1CC2(CC2)C[C@H]1c1nc(-c2ccc(-c3ccc(-c4c[nH]c([C@@H]5CC6(CC6)CN5C(=O)[C@H](C)NC(=O)OC)n4)cc3)cc2)c[nH]1 [Example M147, methyl ((1S)-2-((6S)-6-(4-(4′-(2-((6S)-5-(N-(methoxycarbonyl)-L-alanyl)-5-azaspiro[2.4]hept-6-yl)-1H-imidazol-4-yl)-4-biphenylyl)-1H-imidazol-2-yl)-5-azaspiro[2.4]hept-5-yl)-1-methyl-2-oxoethyl)carbamate] | 9.00 to 12.00
O=C(C(c1ccccc1)N1C2CCC1CC2)N1CCC[C@H]1c1ncc(-c2ccc(-c3ccc(-c4cnc([C@@H]5CCCN5C(=O)C(c5ccccc5)N5C6CCC5CC6)[nH]4)cc3)cc2)[nH]1 (stereo partly drawn) [Example M2, 7,7′-(4,4′-biphenyldiylbis(1H-imidazole-5,2-diyl(2S)-2,1-pyrrolidinediyl(2-oxo-1-phenyl-2,1-ethanediyl)))bis(7-azabicyclo[2.2.1]heptane)] | 7.00 to 9.00
Cc1nc([C@@H]2CCCN2C(=O)[C@@H](c2ccccc2)N2CCCCC2)[nH]c1-c1ccc(-c2ccc(-c3nc([C@@H]4CCCN4C(=O)[C@@H](c4ccccc4)N4CCCCC4)[nH]c3C)cc2)cc1 [Example E5i, 1,1′-(4,4′-biphenyldiylbis((4-methyl-1H-imidazole-5,2-diyl)(2S)-2,1-pyrrolidinediyl((1R)-2-oxo-1-phenyl-2,1-ethanediyl)))dipiperidine] | 9.00 to 12.00
CCN(CC)[C@H](C)C(=O)N1CCC[C@H]1c1ncc(-c2ccc(-c3ccc(-c4cnc([C@@H]5CCCN5C(=O)[C@@H](NC(=O)OC)C(C)C)[nH]4)cc3)cc2)[nH]1 [Example M70, methyl ((1S)-1-(((2S)-2-(5-(4′-(2-((2S)-1-(N,N-diethyl-D-alanyl)-2-pyrrolidinyl)-1H-imidazol-5-yl)-4-biphenylyl)-1H-imidazol-2-yl)-1-pyrrolidinyl)carbonyl)-2-methylpropyl)carbamate] | 7.00 to 9.00
COC[C@H](NC(=O)OC)C(=O)N1CCC[C@H]1c1ncc(-c2ccc(-c3ccc(-c4cnc([C@@H]5CCCN5C(=O)[C@@H](NC(=O)OC)C(C)C)[nH]4)cc3)cc2)[nH]1 [Example M71, methyl ((1S)-2-((2S)-2-(5-(4′-(2-((2S)-1-(N-(methoxycarbonyl)-L-valyl)-2-pyrrolidinyl)-1H-imidazol-5-yl)-4-biphenylyl)-1H-imidazol-2-yl)-1-pyrrolidinyl)-1-(methoxymethyl)-2-oxoethyl)carbamate] | 7.00 to 9.00
COC(=O)N[C@@H](C(=O)N1CCC[C@H]1c1ncc(-c2ccc(-c3ccc(-c4cnc([C@@H]5CCCN5C(=O)C5(c6ccccc6)CC5)[nH]4)cc3)cc2)[nH]1)c1ccccc1 [Example 84-77, methyl ((1R)-2-oxo-1-phenyl-2-((2S)-2-(5-(4′-(2-((2S)-1-((1-phenylcyclopropyl)carbonyl)-2-pyrrolidinyl)-1H-imidazol-5-yl)-4-biphenylyl)-1H-imidazol-2-yl)-1-pyrrolidinyl)ethyl)carbamate] | 9.00 to 12.00
O=C(N[C@@H](C(=O)N1CCC[C@H]1c1ncc(-c2ccc(-c3ccc(-c4cnc([C@@H]5CCCN5C(=O)[C@@H]5CCCO5)[nH]4)cc3)cc2)[nH]1)c1ccccc1)[C@H]1CCCO1 [Example 110, (2R)—N-((1R)-2-oxo-1-phenyl-2-((2S)-2-(5-(4′-(2-((2S)-1-((2S)-tetrahydro-2-furanylcarbonyl)-2-pyrrolidinyl)-1H-imidazol-5-yl)-4-biphenylyl)-1H-imidazol-2-yl)-1-pyrrolidinyl)ethyl)tetrahydro-2-furancarboxamide] | 9.00 to 12.00
COC(=O)N[C@@H](Cc1cn(Cc2ccccc2)cn1)C(=O)N1CCC[C@H]1c1ncc(-c2ccc(-c3ccc(-c4cnc([C@@H]5CCCN5C(=O)[C@@H](NC(=O)OC)C(C)C)[nH]4)cc3)cc2)[nH]1 [cj-76, methyl ((1S)-1-(((2S)-2-(5-(4′-(2-((2S)-1-((2S)-3-(1-benzyl-1H-imidazol-4-yl)-2-((methoxycarbonyl)amino)propanoyl)-2-pyrrolidinyl)-1H-imidazol-5-yl)-4-biphenylyl)-1H-imidazol-2-yl)-1-pyrrolidinyl)carbonyl)-2-methylpropyl)carbamate] | 9.00 to 12.00
C[C@@H](C(=O)N1CCC[C@H]1c1ncc(-c2ccc(-c3ccc(-c4cnc([C@@H]5CCCN5C(=O)[C@@H](c5ccccc5)N5CCCC5)[nH]4)cc3)cc2)[nH]1)N(C)C [Example 103, (2S)-N,N-dimethyl-1-oxo-1-((2S)-2-(5-(4′-(2-((2S)-1-((2R)-2-phenyl-2-(1-pyrrolidinyl)acetyl)-2-pyrrolidinyl)-1H-imidazol-5-yl)-4-biphenylyl)-1H-imidazol-2-yl)-1-pyrrolidinyl)-2-propanamine] | 9.00 to 12.00
COC(=O)NCC(=O)N1[C@@H](C)CC[C@H]1c1nc(-c2ccc(-c3ccc(-c4c[nH]c([C@@H]5CC[C@H](C)N5C(=O)CNC(=O)OC)n4)cc3)cc2)c[nH]1 [Example M155, methyl (2-((2S,5S)-2-(4-(4′-(2-((2S,5S)-1-(((methoxycarbonyl)amino)acetyl)-5-methyl-2-pyrrolidinyl)-1H-imidazol-4-yl)-4-biphenylyl)-1H-imidazol-2-yl)-5-methyl-1-pyrrolidinyl)-2-oxoethyl)carbamate] | 7.00 to 9.00
COC(=O)N[C@H](C(=O)N1CCC[C@H]1c1ncc(-c2ccc(-c3ccc(-c4cnc([C@@H]5CCCN5C(=O)[C@@H](Nc5cccnc5)C(C)C)[nH]4)cc3)cc2)[nH]1)C(C)C [cj-20, methyl ((1S)-2-methyl-1-(((2S)-2-(5-(4′-(2-((2S)-1-(N-3-pyridinyl-L-valyl)-2-pyrrolidinyl)-1H-imidazol-5-yl)-4-biphenylyl)-1H-imidazol-2-yl)-1-pyrrolidinyl)carbonyl)propyl)carbamate] | 9.00 to 12.00
CN1CCN(C(=O)N[C@@H](C(=O)N2CCC[C@H]2c2ncc(-c3ccc(-c4ccc(-c5cnc([C@@H]6CCCN6C(=O)[C@@H]6CCCO6)[nH]5)cc4)cc3)[nH]2)c2ccccc2)CC1 [Example 117, 4-methyl-N-((1R)-2-oxo-1-phenyl-2-((2S)-2-(5-(4′-(2-((2S)-1-((2S)-tetrahydro-2-furanylcarbonyl)-2-pyrrolidinyl)-1H-imidazol-5-yl)-4-biphenylyl)-1H-imidazol-2-yl)-1-pyrrolidinyl)ethyl)-1-piperazinecarboxamide] | 9.00 to 12.00
